# Experimental data reported in ChEMBL document CHEMBL1157801, “Discovery of an in vitro and in vivo potent resorcylic lactone analog of LL-Z1640-2 as anti-inflammatory lead, II” (Bioorg Med Chem Lett, 2010).
# Active and inactive are the calls of the source. No cut-off for these calls is given here.
# Tested on: Mus musculus
# Assay: Antiinflammatory activity in iv dosed mouse assessed as inhibition of LPS-stimulated TNFalpha production
# Assay type: functional
row,Structure (SMILES),ED50
1,C[C@@H]1/C=C\C(=O)[C@@H](O)[C@@H](O)C/C=C/c2cc(OCCn3ccnc3)cc(O)c2C(=O)O[C@H]1C,6.5 mg/kg
2,COc1cc(O)c2c(c1)/C=C/C[C@H](O)[C@H](O)C(=O)/C=C\[C@@H](C)[C@H](C)OC2=O,13.2 mg/kg
3,CCOc1cc(O)c2c(c1)/C=C/C[C@H](O)[C@H](O)C(=O)/C=C\[C@@H](C)[C@H](C)OC2=O,12 mg/kg
4,COc1cc(O)c2c(c1)/C=C/C[C@H](O)[C@H](O)C(=O)/C=C\C[C@H](C)OC2=O,inactive
5,C[C@@H]1/C=C\C(=O)[C@@H](O)[C@@H](O)C/C=C/c2cc(OCCCS(C)(=O)=O)cc(O)c2C(=O)O[C@H]1C,9.8 mg/kg

# Tested on: U-937
# Assay: Inhibition of PALP-fussed actin production in human U937 cells
# Assay type: functional, cell-based
row,IC50 [nM],Structure (SMILES)
1,> 10000,CCCOc1cc(O)c2c(c1)/C=C/C[C@H](O)[C@H](O)C(=O)/C=C\[C@@H](C)[C@H](C)OC2=O
2,> 10000,C[C@@H]1/C=C\C(=O)[C@@H](O)[C@@H](O)C/C=C/c2cc(OCCN(C)C)cc(O)c2C(=O)O[C@H]1C
3,> 10000,C[C@@H]1/C=C\C(=O)[C@@H](O)[C@@H](O)C/C=C/c2cc(O)cc(O)c2C(=O)O[C@H]1C
4,> 10000,CC(C)Oc1cc(O)c2c(c1)/C=C/C[C@H](O)[C@H](O)C(=O)/C=C\[C@@H](C)[C@H](C)OC2=O
5,> 10000,C[C@@H]1/C=C\C(=O)[C@@H](O)[C@@H](O)C/C=C/c2cc(OCC(O)CO)cc(O)c2C(=O)O[C@H]1C (some centres undefined)
6,> 10000,C[C@@H]1/C=C\C(=O)[C@@H](O)[C@@H](O)C/C=C/c2cc(OC(F)F)cc(O)c2C(=O)O[C@H]1C
7,> 10000,CC(=O)NCCOc1cc(O)c2c(c1)/C=C/C[C@H](O)[C@H](O)C(=O)/C=C\[C@@H](C)[C@H](C)OC2=O
8,> 10000,COc1cc(O)c2c(c1)/C=C/C[C@H](O)[C@H](O)C(=O)/C=C\[C@@H](C)[C@H](C)OC2=O
9,> 10000,CCOc1cc(O)c2c(c1)/C=C/C[C@H](O)[C@H](O)C(=O)/C=C\[C@@H](C)[C@H](C)OC2=O
10,> 10000,CCCCOc1cc(O)c2c(c1)/C=C/C[C@H](O)[C@H](O)C(=O)/C=C\[C@@H](C)[C@H](C)OC2=O

# Further lines, the compound ahead of its results:
row,Structure (SMILES),IC50 [nM]
1,C[C@@H]1/C=C\C(=O)[C@@H](O)[C@@H](O)C/C=C/c2cc(OCc3ccccc3)cc(O)c2C(=O)O[C@H]1C,> 10000
2,C[C@@H]1/C=C\C(=O)[C@@H](O)[C@@H](O)C/C=C/c2cc(OCCNc3ccccn3)cc(O)c2C(=O)O[C@H]1C,> 10000
3,COc1cc(O)c2c(c1Br)/C=C/C[C@H](O)[C@H](O)C(=O)/C=C\[C@@H](C)[C@H](C)OC2=O,> 10000
4,C[C@@H]1/C=C\C(=O)[C@@H](O)[C@@H](O)C/C=C/c2cc(OCCn3ccnc3)cc(O)c2C(=O)O[C@H]1C,> 10000
5,COc1cc(O)c2c(c1)OCC[C@H](O)[C@H](O)C(=O)/C=C\[C@@H](C)[C@H](C)OC2=O,> 10000
6,COc1cc(O)c2c(c1)NC(=O)C[C@H](O)[C@H](O)C(=O)/C=C\[C@@H](C)[C@H](C)OC2=O,> 10000
7,C[C@@H]1/C=C\C(=O)[C@@H](O)[C@@H](O)C/C=C/c2cc(OCCn3ccnn3)cc(O)c2C(=O)O[C@H]1C,> 10000
8,CC(=O)NCC(=O)COc1cc(O)c2c(c1)/C=C/C[C@H](O)[C@H](O)C(=O)/C=C\[C@@H](C)[C@H](C)OC2=O,> 10000
9,COc1ccc(COc2cc(O)c3c(c2)/C=C/C[C@H](O)[C@H](O)C(=O)/C=C\[C@@H](C)[C@H](C)OC3=O)cc1,> 10000
10,C[C@@H]1/C=C\C(=O)[C@@H](O)[C@@H](O)C/C=C/c2cc(OCCN3CCOCC3)cc(O)c2C(=O)O[C@H]1C,> 10000
11,C[C@@H]1/C=C\C(=O)[C@@H](O)[C@@H](O)C/C=C/c2cc(OCc3ccc(Cl)c(Cl)c3)cc(O)c2C(=O)O[C@H]1C,> 10000
12,C[C@@H]1/C=C\C(=O)[C@@H](O)[C@@H](O)C/C=C/c2cc(OCCCS(C)(=O)=O)cc(O)c2C(=O)O[C@H]1C,> 10000

# Tested on: U-937
# Assay: Inhibition of PALP-fussed TNFalpha production in human U937 cells
# Assay type: functional, cell-based
row,IC50 [nM],Structure (SMILES)
1,249,CCCOc1cc(O)c2c(c1)/C=C/C[C@H](O)[C@H](O)C(=O)/C=C\[C@@H](C)[C@H](C)OC2=O
2,597,C[C@@H]1/C=C\C(=O)[C@@H](O)[C@@H](O)C/C=C/c2cc(OCCN(C)C)cc(O)c2C(=O)O[C@H]1C
3,515,C[C@@H]1/C=C\C(=O)[C@@H](O)[C@@H](O)C/C=C/c2cc(O)cc(O)c2C(=O)O[C@H]1C
4,687,CC(C)Oc1cc(O)c2c(c1)/C=C/C[C@H](O)[C@H](O)C(=O)/C=C\[C@@H](C)[C@H](C)OC2=O
5,383,C[C@@H]1/C=C\C(=O)[C@@H](O)[C@@H](O)C/C=C/c2cc(OCC(O)CO)cc(O)c2C(=O)O[C@H]1C (some centres undefined)
6,615,C[C@@H]1/C=C\C(=O)[C@@H](O)[C@@H](O)C/C=C/c2cc(OC(F)F)cc(O)c2C(=O)O[C@H]1C
7,65,CC(=O)NCCOc1cc(O)c2c(c1)/C=C/C[C@H](O)[C@H](O)C(=O)/C=C\[C@@H](C)[C@H](C)OC2=O
8,136,COc1cc(O)c2c(c1)/C=C/C[C@H](O)[C@H](O)C(=O)/C=C\[C@@H](C)[C@H](C)OC2=O
9,100,CCOc1cc(O)c2c(c1)/C=C/C[C@H](O)[C@H](O)C(=O)/C=C\[C@@H](C)[C@H](C)OC2=O
10,325,CCCCOc1cc(O)c2c(c1)/C=C/C[C@H](O)[C@H](O)C(=O)/C=C\[C@@H](C)[C@H](C)OC2=O

# The remaining lines, values behind:
row,Structure (SMILES),IC50 [nM]
1,C[C@@H]1/C=C\C(=O)[C@@H](O)[C@@H](O)C/C=C/c2cc(OCc3ccccc3)cc(O)c2C(=O)O[C@H]1C,319
2,C[C@@H]1/C=C\C(=O)[C@@H](O)[C@@H](O)C/C=C/c2cc(OCCNc3ccccn3)cc(O)c2C(=O)O[C@H]1C,113
3,COc1cc(O)c2c(c1Br)/C=C/C[C@H](O)[C@H](O)C(=O)/C=C\[C@@H](C)[C@H](C)OC2=O,804
4,C[C@@H]1/C=C\C(=O)[C@@H](O)[C@@H](O)C/C=C/c2cc(OCCn3ccnc3)cc(O)c2C(=O)O[C@H]1C,15
5,COc1cc(O)c2c(c1)OCC[C@H](O)[C@H](O)C(=O)/C=C\[C@@H](C)[C@H](C)OC2=O,1680
6,COc1cc(O)c2c(c1)NC(=O)C[C@H](O)[C@H](O)C(=O)/C=C\[C@@H](C)[C@H](C)OC2=O,293
7,C[C@@H]1/C=C\C(=O)[C@@H](O)[C@@H](O)C/C=C/c2cc(OCCn3ccnn3)cc(O)c2C(=O)O[C@H]1C,43
8,CC(=O)NCC(=O)COc1cc(O)c2c(c1)/C=C/C[C@H](O)[C@H](O)C(=O)/C=C\[C@@H](C)[C@H](C)OC2=O,31
9,COc1ccc(COc2cc(O)c3c(c2)/C=C/C[C@H](O)[C@H](O)C(=O)/C=C\[C@@H](C)[C@H](C)OC3=O)cc1,168
10,C[C@@H]1/C=C\C(=O)[C@@H](O)[C@@H](O)C/C=C/c2cc(OCCN3CCOCC3)cc(O)c2C(=O)O[C@H]1C,59
11,C[C@@H]1/C=C\C(=O)[C@@H](O)[C@@H](O)C/C=C/c2cc(OCc3ccc(Cl)c(Cl)c3)cc(O)c2C(=O)O[C@H]1C,752
12,C[C@@H]1/C=C\C(=O)[C@@H](O)[C@@H](O)C/C=C/c2cc(OCCCS(C)(=O)=O)cc(O)c2C(=O)O[C@H]1C,32
